Common to all, as to type: cell-based
The target in assay [1] is T1, GLUT2 (Homo sapiens, UniProt P11168).
T1 construct: host or cells: DLD1 or CHO-K1
T1 sequence (P11168 1-524): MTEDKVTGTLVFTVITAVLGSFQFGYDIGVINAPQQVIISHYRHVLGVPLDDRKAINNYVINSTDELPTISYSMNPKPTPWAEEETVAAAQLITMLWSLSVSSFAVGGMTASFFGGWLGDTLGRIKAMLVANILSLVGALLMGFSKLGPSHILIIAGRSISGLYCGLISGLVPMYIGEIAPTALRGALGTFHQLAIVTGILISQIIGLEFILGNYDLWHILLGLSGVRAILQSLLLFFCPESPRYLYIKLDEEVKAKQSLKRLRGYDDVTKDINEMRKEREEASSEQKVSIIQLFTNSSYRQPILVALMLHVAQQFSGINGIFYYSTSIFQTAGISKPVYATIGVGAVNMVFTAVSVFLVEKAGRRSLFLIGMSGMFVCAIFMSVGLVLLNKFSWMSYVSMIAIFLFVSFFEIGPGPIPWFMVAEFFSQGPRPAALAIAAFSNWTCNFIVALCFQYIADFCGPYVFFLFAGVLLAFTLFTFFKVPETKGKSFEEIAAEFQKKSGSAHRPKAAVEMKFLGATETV
Nature of the assay: Indirect measurement of GLUT2 activity by quantification of intracellular ATP levels (fructose induced ATP increase). The note with it: 10 mM fructose, 1 μM Rotenone, 15 min; CellTiter-Glo ATP readout; read-out: IC50 regarding fructose induced ATP increase (GLUT2 inhibition). From the text: Indirect Measurement of GLUT1 and GLUT2 Activity by Quantification of Intracellular ATP Levels
It is well known that a combination of small-molecule inhibitors of mitochondrial electron transport chain and glucose catabolism synergistically suppress ATP production and impair cellular viability (Ulanovskaya et al., 2008, 2011; Liu, et al. 2001). We therefore used DLD1 or CHO-K1 cells in combination with an oxidative phosphorylation inhibitor to identify GLUT1 and GLUT2 inhibitors. Cell lines were maintained in DMEM medium supplemented with 10% FCS and 1% Penicillin-Streptomycin solution and 2% Glutamax. The cells were treated with trypsin and seeded into 384 plates at a density of 4000 cells/well. The cells were then cultured overnight in glucose free media containing 1% FCS to reduce intracellular ATP levels. […] The CellTiter-Glo® Luminescent Cell Viability Assay from Promega was then used to measure ATP Levels.
In general terms: ATP-based viability assays read luminescence as a measure of living cells.

Assay [2] addresses T2, GLUT1 (Homo sapiens, UniProt P11166).
T2 sequence (P11166 1-492): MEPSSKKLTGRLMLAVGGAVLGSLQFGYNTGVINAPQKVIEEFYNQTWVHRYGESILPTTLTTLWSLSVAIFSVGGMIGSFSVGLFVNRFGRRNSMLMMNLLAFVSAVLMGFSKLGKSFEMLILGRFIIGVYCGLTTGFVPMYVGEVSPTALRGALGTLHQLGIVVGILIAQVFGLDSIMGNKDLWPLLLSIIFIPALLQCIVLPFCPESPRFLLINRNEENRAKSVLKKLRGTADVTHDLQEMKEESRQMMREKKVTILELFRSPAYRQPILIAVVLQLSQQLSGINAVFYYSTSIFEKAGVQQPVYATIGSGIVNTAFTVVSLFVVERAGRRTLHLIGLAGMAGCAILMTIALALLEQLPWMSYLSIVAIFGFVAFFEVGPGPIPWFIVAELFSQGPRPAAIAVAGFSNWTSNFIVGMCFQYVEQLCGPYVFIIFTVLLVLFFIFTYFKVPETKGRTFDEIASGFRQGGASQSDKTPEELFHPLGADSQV
Put plainly: Indirect measurement of GLUT1 activity by quantification of intracellular ATP levels (glucose induced ATP increase). Details: endogenous in cells; host or cells: DLD1 or CHO-K1. The note with it: read-out: IC50 regarding glucose induced ATP increase (GLUT1 inhibition). The procedure, abridged:
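Intracellular ATP was measured by CellTiter-Glo luminescence as an indirect readout of transport: glucose-driven for GLUT1, fructose-driven for GLUT2. DLD1 or CHO-K1 cells were used alongside an oxidative phosphorylation inhibitor. Beforehand, cells were held overnight in glucose-free 1% FCS medium to deplete ATP.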

Assay [3] addresses T2, GLUT1. Nature of the assay: 2-deoxy-D-glucose (3H) uptake assay, GLUT1 inhibition in cell lines. The conditions noted are these: H460 cell line; 3H-2-deoxy-D-glucose uptake; read-out: IC50 regarding GLUT1 inhibition. On the procedure:
Cells (e.g. H460 or CHO-K1) were cultured under standard conditions. 10000 cells per well were seeded in clear 96 well tissue culture isoplate plates and cultured overnight (PerkinElmer, 1450-516) under standard conditions. Culture medium was removed and cells were washed two times with 100 μL KRP buffer and then incubated for 45 minutes at 37° C. (KRP buffer: 10 mM sodium hydrogen phosphate, 130 mM sodium chloride, 5 mM potassium chloride, 1.3 mM magnesium sulfate, 1.3 mM calcium chloride (pH 7.5), 50 mM HEPES (pH 7.5), 4.7 mM potassium chloride, 1.25 mM magnesium sulfate, 1.25 mM calcium chloride) each. KRP wash buffer was removed and compound 126 (diluted in KRP buffer) was added and incubated for 30 minutes at 37° C. 200 nM radioligand (radioligand 2[1,2] 3H-Deoxy D-Glucose in KRP buffer) were added and incubated for 5 minutes at room temperature. The supernatant was removed and cells were washed with 100 μL ice-cold KRP for two times each. 25 μL of Lysis buffer (1% Triton-X, 0.5N sodium hydroxide) were added and incubated at room temperature for 5 minutes. 75 μL scintillation solution (Microscint-20, PerkinElmer) were added and the plates were shaken for 1 minute. The plates were incubated for 3 h at room temperature and the counts were determined by using a Wallace MicroBeta counter (60 seconds per well).

Each structure is given as a SMILES string.

With `CCc1noc(Cn2nc(C)c(NC(=O)c3cc(C(N)=O)nc4ccccc34)c2C)n1` [Example 1571], the IC50 (usually the concentration that inhibits the measured activity by half) was 36100 nM in assay [1] and 64.1 nM in assay [2].

As for `Cc1nn(Cc2ccc(C#N)cn2)c(C)c1NC(=O)c1cc(C(N)=O)nc2cccc(F)c12` [Example 352, N^4-{1-[(5-cyanopyridin-2-yl)methyl]-3,5-dimethyl-1H-pyrazol-4-yl}-5-fluoroquinoline-2,4-dicarboxamide], the IC50 is 45100 nM in assay [1] and 2.5 nM in assay [2].

Regarding `Cc1nn(Cc2ccc(CN(C)C)cc2)c(C)c1NC(=O)c1cc(C(N)=O)nc2cc(F)ccc12` [Example 388, N^4-(1-{4-[(dimethylamino)methyl]benzyl}-3,5-dimethyl-1H-pyrazol-4-yl)-7-fluoroquinoline-2,4-dicarboxamide], the results for the IC50 in assay [1] and in assay [2] were 51200 nM and 108 nM, respectively.

For the molecule `Cc1c(NC(=O)c2cc(C(N)=O)nc3ccccc23)c(C(F)(F)F)nn1Cc1ccc(C#N)cc1` [Example 126, N^4-[1-(4-cyanobenzyl)-5-methyl-3-(trifluoromethyl)-1H-pyrazol-4-yl]quinoline-2,4-dicarboxamide], the IC50 in assay [3] amounted to 15.4 nM; in assay [1] it was 85400 nM; in assay [2] it was 4.7 nM.

As to `COc1cc(C(=O)Nc2c(C)nn(Cc3ccc(C#N)cc3)c2C)c2ccccc2n1` [Example 15, N-[1-(4-cyanobenzyl)-3,5-dimethyl-1H-pyrazol-4-yl]-2-methoxyquinoline-4-carboxamide], the results for the IC50 in assay [1] and in assay [2] were 85400 nM and 11.6 nM, respectively.

On to `CCS(=O)(=O)N1CCC(Cn2nc(C)c(NC(=O)c3cc(C(N)=O)nc4cc(F)c(Cl)cc34)c2C)CC1` [Example 415, 6-chloro-N^4-(1-{[1-(ethylsulfonyl)piperidin-4-yl]methyl}-3,5-dimethyl-1H-pyrazol-4-yl)-7-fluoroquinoline-2,4-dicarboxamide], for which the figures for the IC50 in assay [1] and in assay [2] were 18400 nM and 10 nM, respectively.

`CNC(=O)c1nc(Cn2nc(C(F)(F)F)c(NC(=O)c3cc(C(N)=O)nc4cc(F)c(Cl)cc34)c2C)no1` [Example 1558]: the IC50 in assay [1] was found to be 51200 nM; in assay [2], 11.9 nM.

For `Cc1nn(Cc2ccc(F)cc2)c(C)c1NC(=O)c1cc(C2CC2)nc2c(F)cccc12` [Example 40, 2-cyclopropyl-8-fluoro-N-[1-(4-fluorobenzyl)-3,5-dimethyl-1H-pyrazol-4-yl]quinoline-4-carboxamide], the IC50 in assay [2] stood at 30 nM.

Consider `Cc1nn(Cc2noc(C(=O)N(C)C)n2)c(C)c1NC(=O)c1cc(C(N)=O)nc2ccccc12` [Example 1521], for which the IC50 in assay [2] was 1670 nM.

On to `Cc1nn(Cc2ccc(C(=O)NC3CC3)cc2)c(C)c1NC(=O)c1cc(C(F)(F)F)nc2ccc(Br)cc12` [Example 1024], for which, in assay [2], the IC50 was found to be 2.7 nM.

In the case of `Cc1ccc2nc(C)cc(C(=O)Nc3c(C)nn(Cc4ccccc4C#N)c3C)c2c1` [Example 114, N-[1-(2-cyanobenzyl)-3,5-dimethyl-1H-pyrazol-4-yl]-2,6-dimethylquinoline-4-carboxamide], the concentration for half-maximal inhibition (IC50) in assay [2] turned out to be 833 nM.

Regarding `Cc1nn(Cc2ccccn2)c(C)c1NC(=O)c1cc(C(F)(F)F)nc2c(Cl)cc(Cl)cc12` [Example 66, 6,8-dichloro-N-[3,5-dimethyl-1-(pyridin-2-ylmethyl)-1H-pyrazol-4-yl]-2-(trifluoromethyl)quinoline-4-carboxamide], in assay [2], the IC50 is 135 nM.

Take `Cc1nn(Cc2ccc(OC(F)(F)F)cc2)c(C)c1NC(=O)c1cc(C(N)=O)nc2cccc(F)c12` [Example 1462]: the IC50 in assay [2] came out at 2.9 nM.

Consider `Cc1nn(Cc2ccc(C(=O)NCCOCCO)cc2)c(C)c1NC(=O)c1cc(C(F)(F)F)nc2ccc(Br)cc12` [Example 1144], for which the IC50 in assay [2] turned out to be 114 nM.

As to `Cc1nn(Cc2ccc(F)cc2F)c(C)c1NC(=O)c1cc(C(N)=O)nc2cccc(F)c12` [Example 1488], the IC50 in assay [2] was determined as 6.8 nM.

For `Cc1ccc(Cn2nc(C)c(NC(=O)c3cc(C(F)(F)F)nc4ccc(Br)cc34)c2C)cc1` [Example 54, 6-bromo-N-[3,5-dimethyl-1-(4-methylbenzyl)-1H-pyrazol-4-yl]-2-(trifluoromethyl)quinoline-4-carboxamide], the IC50 in assay [2] turned out to be 58.3 nM.

As for `COc1cccc(Cn2nc(C)c(NC(=O)c3cc(C)nc4ccc(C)cc34)c2C)c1` [Example 109, N-[1-(3-methoxybenzyl)-3,5-dimethyl-1H-pyrazol-4-yl]-2,6-dimethylquinoline-4-carboxamide], in assay [2], the IC50 amounted to 688 nM.

Take `CCNC(=O)c1ccc(Cn2nc(C)c(NC(=O)c3cc(C(F)(F)F)nc4ccc(Br)cc34)c2C)cc1` [Example 1028]: in assay [2], the IC50 worked out at 3 nM.

Take `Cc1nn(Cc2ccc(C(=O)NCCO)cc2)c(C)c1NC(=O)c1cc(C(N)=O)nc2cc(F)ccc12` [Example 1420]: the IC50 in assay [2] came to 354 nM.

On to `Cc1nn(Cc2ccc(C(=O)NCc3cccc(O)c3)cc2)c(C)c1NC(=O)c1cc(C(F)(F)F)nc2ccc(Br)cc12` [Example 1209], for which the IC50 in assay [2] came out at 502 nM.

In the case of `Cc1cccc(Cn2nc(C(F)(F)F)c(NC(=O)c3cc(C(N)=O)nc4ccc(Br)cc34)c2C)c1` [Example 1482], the IC50 in assay [2] worked out at 5.3 nM.

The values are drawn from patent publication US20170037028A1 (BAYER PHARMA AKTIENGESELLSCHAFT, priority 2013, published 2017).
